Source: patent US5166357A (priority 1988, dated 1992)
Like-named read-outs stand apart in the source and are kept apart here.

Columns and labels:
muscarinic receptors [1] = assay: Radio ligand binding: displacement of muscarinic agonist 3H-Oxotremorine-M (3H-OXO-M) from rat cerebral cortex membranes; design: species or system Hooded Lister rats; details: 2nM 3H-OXO-M, 2mM magnesium chloride, tris pH 7.7, 37° C., 30 min
muscarinic receptors [2] = assay type: binding, Hooded Lister rats; details: 0.27nM 3H-QNB, rat cerebral cortex, tris pH 7.7, 37° C., 30 min

| Structure (SMILES) | IC50 (muscarinic receptors [1]) | IC50 (muscarinic receptors [2]) |
| --- | --- | --- |
| Nc1ncc(C2CN3CCC2CC3)o1 (racemic) [Example E2, (±) 3-(2-Amino-1,3-oxazol-5-yl)-1-azabicyclo[2.2.2]octane] | 0.44 µM | 17 µM |
| Nc1ncc(C2CN3CCC2C3)o1 (racemic) [Example E6, (±) exo and endo 3-(2-Amino-1,3-oxazol-5-yl)-1-azabicyclo[[2.2.1]heptane] | 0.2 µM | 10.3 µM |
| COCc1ncc(C23CCCN(CC2)C3)o1 (racemic) [Example E11, (±)5-(2-Methoxymethyl-1,3-oxazol-5-yl)-1-azabicyclo [3.2.1]octane] | 0.22 µM | 2.6 µM |
| Nc1ncc(C23CCN(CC2)C3)o1 [Example E5] | 0.018 µM | 11 µM |
| COCc1ncc(C23CCN(CC2)C3)o1 [Example E17, 4-(2-Methoxymethyl-1,3-oxazol-5-yl)-1-azabicyclo[2.2.1]-heptane] | 1.05 µM | 60 µM |
| Nc1nc(C23CCCN(CC2)C3)cs1 (racemic) [Example E4, (±5-(2-Amino-1,3-thiazol-4-yl)-1-azabicyclo[3.2.1]octane] | 0.28 µM | 5.6 µM |
| FCc1ncc(C23CCCN(CC2)C3)o1 (racemic) [Example E12, (±)5-(2-Fluoromethyl-1,3-oxazol-5-yl)-1-azabicyclo [3.2.1]octane] | 0.005 µM | 0.44 µM |
| Nc1nc(C23CCCN(CC2)C3)co1 (racemic) [Example E1, (±) 5-(2-Amino-1,3-oxazol-4-yl)-1-azabicyclo[3.2.1]octane] | 0.25 µM | 42 µM |
| Nc1ncc(C23CCCN(CC2)C3)o1 (racemic) [Example E3, (±) 5-(2-Amino-1,3-oxazol-5-yl)-1-azabicyclo[3.2.1]-octane] | 0.004 µM | 3.5 µM |
| N#Cc1ncc(C23CCCN(CC2)C3)o1 (racemic) [Example E13, (±)5-(2-Cyano-1,3-oxazol-5-yl)-1-azabicyclo[3.2.1]octane] | 0.38 µM | 2.8 µM |
| COC(=O)c1ncc(C23CCCN(CC2)C3)o1 (racemic) [Example E9, (±)5-(2-Methoxycarbonyl-1,3-oxazol-5-yl)-1-azabicyclo [3.2.1]octane] | 2 µM | 30.5 µM |
| Nc1ncc([C@H]2C[C@@H]3CCN(C3)C2)o1 (relative stereo) [Example E16, (±) exo 3-(2-Amino-1,3-oxazol-5-yl)-1-azabicyclo[3.2.1]octane] | 0.56 µM | 42 µM |
| OCc1ncc(C23CCCN(CC2)C3)o1 (racemic) [Example E10, (±)5-(2-Hydroxymethyl-1,3-oxazol-5-yl)-1-azabicyclo [3.2.1]octane] | 0.206 µM | 7 µM |
